pIC50: −log10 of the molar value. Like-named read-outs stand apart in the source and are kept apart here. Blank lines part the entries; values can stand above or below the compound they belong to.
What was measured:
[1] = target: T1, recombinant full-length HSET (Homo sapiens, UniProt Q9BW19); experiment: ADP-Glo HSET assay (3 μM ATP), microtubule-stimulated ATPase; type: biochemical
T1 construct: 5 nM full-length human N-terminal His-tag HSET; His-tag (N)
T1 sequence (Q9BW19 1-673): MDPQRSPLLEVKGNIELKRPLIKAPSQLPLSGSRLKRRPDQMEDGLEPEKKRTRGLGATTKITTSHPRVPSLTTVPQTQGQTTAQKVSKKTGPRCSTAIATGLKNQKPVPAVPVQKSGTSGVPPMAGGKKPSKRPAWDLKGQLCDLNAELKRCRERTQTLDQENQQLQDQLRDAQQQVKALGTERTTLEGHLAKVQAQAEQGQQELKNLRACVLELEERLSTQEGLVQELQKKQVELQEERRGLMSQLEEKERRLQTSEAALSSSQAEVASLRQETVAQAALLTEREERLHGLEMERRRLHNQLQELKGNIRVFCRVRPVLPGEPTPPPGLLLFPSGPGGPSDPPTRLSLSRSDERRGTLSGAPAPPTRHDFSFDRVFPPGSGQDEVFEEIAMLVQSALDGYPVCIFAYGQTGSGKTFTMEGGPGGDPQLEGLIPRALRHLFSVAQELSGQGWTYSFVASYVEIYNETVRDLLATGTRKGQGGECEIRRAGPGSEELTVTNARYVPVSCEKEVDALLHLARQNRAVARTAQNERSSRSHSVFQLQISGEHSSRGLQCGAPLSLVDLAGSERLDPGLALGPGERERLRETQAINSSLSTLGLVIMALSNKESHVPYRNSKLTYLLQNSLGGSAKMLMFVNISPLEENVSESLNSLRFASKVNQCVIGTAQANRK
Protocol: (§1) The HSET or Eg5 ATPase activity was measured using the ADP-Glo Kinase Assay kit (Promega, V9102). The assays were run using final concentrations of 5 nM full-length human N-terminal His-tag HSET or 4 nM GST-tagged Eg5 motor domain protein (Cytoskeleton, EG01) and an assay buffer containing 20 mM HEPES pH 6.8, 10 mM MgCl2, 0.25 mM EGTA, 0.4 mM Triton X-100, and 1 mM DTT. Preformed microtubules (Universal Biologicals Cambridge, bovine MT001-XL, or porcine MT002-XL), which were reconstituted in 15 mM PIPES pH 7, 1 mM MgCl2, and 20 μM paclitaxel, were present at a final assay concentration of 70 μg/mL. A reaction volume of 5 μL was used in Proxiplate 384 plus white assay plates (PerkinElmer, 6008280). To measure compound inhibition, 100 nL of compound dissolved in DMSO or DMSO alone was preincubated with the HSET and microtubules for 10 min before 3 μM Ultra-Pure ATP was added to start the ATPase reaction for the 3 μM ATP HSET assay. For the 500 μM ATP HSET assay, the addition of 500 μM Ultra-Pure ATP was used. For the Eg5 ATPase assay, 4.8 μM Ultra-Pure ATP was used. All reactions were incubated at 25 °C for 80 min and then stopped by the addition of 5 μL of the ADP-Glo reagent. 10 μL of Kinase Detection Reagent was then added after a further 45 min of incubation. The luminescence was read after 45 min on a PheraStar FSX plate reader (BMG Labtech). The data processing was performed using Dotmatics Studies software package. Percentage inhibition was determined based on normalization to high controls (0% inhibition, all reagents with 100 nL of DMSO alone) and low controls (100% inhibition […], without HSET). The IC50 values for each compound were determined using a four-parameter logistic curve fit of % inhibition versus concentration.

[2] = tested on: centrosome-amplified (4NCA) DLD1 cells; experiment: Multipolar spindle assay (4NCA cell line); type: cell-based, human
Excerpt: (§2) The cellular models consisted of chromosomally stable human colon cancer DLD1 diploid (2N) and tetraploid (4N) cells, along with tetraploid centrosome -amplified (4NCA) DLD1 cells and DLD1 HSET knockout (KO) cells. DLD1 2N and 4N cells were generated and characterized as previously described.[27],[41],[42] In order to generate 4NCA cells, we used dihydro-cytochalasin B (DCB) to transiently block cytokinesis and induce tetraploidisation and centrosome amplification in DLD1 cells. Centrosome amplification in 4NCA cells is transient and therefore they were generated from 2N cells for each run of the assay.[27] The DLD1 HSET KO cells were knockout clones generated by CRISPR and validated by sequencing to have a homozygous deletion in the KIFC1 gene.
(§3) Inhibition of HSET-mediated clustering was measured using a phenotypic assay measuring the formation of multipolar metaphase spindles in DLD1 cells with (4NCA) or without (4N) centrosome amplification. 4NCA cells were generated by treating 2N DLD1 cells with 2 μΜ DCB for 24 h, washed, and released in growth media for 24 h. 4N and 4NCA DLD1 cells were plated in 96-well ibidi μ-Clear plates (IB-89626, ibidi) with a no. 1.5 polymer coverslip bottom with optimal imaging properties. To enrich the mitotic population, cells were first treated for 3.5 h with 8 μM pro-TAME (I-440-01M, R&D system), an inhibitor of APC/C that transiently arrests cells in metaphase without affecting the structure of the spindle. Following the initial arrest, cells were treated with HSET compounds in the presence of 8 μM MG-132 (S2619, SelleckChem), a proteasome inhibitor that helps to maintain the metaphase arrest, where the number of spindle poles/cell can be optimally quantified by an automated segmentation analysis.
(§4) Cells were then fixed in methanol and stained for 3 h for mitotic pole marker aurora A (1:1000 610939 mouse anti-IAK1, BD Biosciences) and phosphorylated histone H3 (1:1500 ab47297 anti-histone H3 pS10, Abcam) as a marker of mitotic cells in 1.5% FBS in PBS. Following primary antibody treatment, cells were incubated with secondary antibodies Alexa Fluor 488 goat antimouse and Alexa Fluor 555 goat antirabbit (1:1500, A11029 and A21429, respectively, Life Technologies) together with 1 μg/mL DAPI (D9542, Sigma) in 1.5% FBS in PBS. Image acquisition was performed at 10× using the GE INCELL 2200 High Content Imaging System (Cytiva) and analyzed using the InCell Investigator software. Mitotic cells were identified by high pHH3 staining and were scored as multipolar if they had more than two mitotic spindle poles. The percentage of multipolar mitoses was calculated by dividing the number of multipolar mitoses by the total of all visible mitoses in one well of a 96-well plate (n > 100 for each replicate, two replicates per concentration point).

[3] = target: T2, GST-tagged Eg5 motor domain (Homo sapiens, UniProt P52732); experiment: ADP-Glo Eg5 assay (4.8 μM ATP); type: biochemical; details: for pIC50: preformed microtubules, 4.8 μM ATP (Table 4)
T2 construct: 4 nM GST-tagged Eg5 motor domain protein (Cytoskeleton, EG01); purchased Cytoskeleton EG01
T2 sequence (P52732 18-359 limits assumed): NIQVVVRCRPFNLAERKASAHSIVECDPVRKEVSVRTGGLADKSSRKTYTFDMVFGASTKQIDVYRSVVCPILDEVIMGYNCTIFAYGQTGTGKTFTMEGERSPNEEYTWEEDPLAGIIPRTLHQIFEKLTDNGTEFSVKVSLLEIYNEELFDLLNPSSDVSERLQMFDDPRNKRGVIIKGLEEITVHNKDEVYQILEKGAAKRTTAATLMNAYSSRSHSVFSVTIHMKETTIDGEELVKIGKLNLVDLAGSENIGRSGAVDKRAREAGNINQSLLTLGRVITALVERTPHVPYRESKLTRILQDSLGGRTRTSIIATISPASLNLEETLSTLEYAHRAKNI
Protocol: as §1

[4] = tested on: non-centrosome amplified DLD1 (4N) cells; experiment: Multipolar spindle assay (4N cell line); type: cell-based, human; details: for % Multipolarity above baseline @ 15 mM (4N cells): supplementary CSV; for % multipolarity above baseline @ 15 μM (4N cells): 4N DLD1 cells (Table 4)
Excerpt: as §2, §3, §4

[5] = Kinetic aqueous solubility (KSol), HPLC-UV; type: physicochemical; details: PBS buffer pH 7.4, 100 μM solution with 1% DMSO, HPLC with UV detection
[6] = LE = −1.4Log(IC50 [M])/number of non-hydrogen atoms (Table 1)
[7] = LLE = −Log(IC50 [M]) – cLogP (MoKa) (Table 1)
[8] = preformed microtubules, 3 μM ATP, mean (±SD) n ≥ 3 (Table 4), read-out: HSET ADP-Glo IC50
[9] = preformed microtubules, 3 μM ATP, mean (±SD) n ≥ 3, >200 from a single determination (Table 1), read-out: HSET ADP-Glo IC50
[10] = 15 μM, 4NCA DLD1 cells (Table 4)
[11] = 15 µM, 4NCA cells, supplementary CSV
[12] = LE = −1.4Log(IC50 [M])/number of non-hydrogen atoms (Table 2)
[13] = LLE = −Log(IC50 [M]) – cLogP (MoKa) (Table 2)
[14] = preformed microtubules, 3 μM ATP, mean (±SD) n ≥ 3, >200 from a single determination (Table 2), read-out: HSET ADP-Glo IC50
[15] = preformed microtubules, 3 μM ATP, mean (±SD) n ≥ 3 (37 n = 2, 38 single determination) (Table 3), read-out: HSET ADP-Glo IC50

Compound: CCOC(=O)c1sc(NC(=O)CCNC(=O)c2cccc(C)c2)nc1C [Compound 2, Ethyl 4-Methyl-2-(3-(3-methylbenzamido)propanamido)thiazole-5-carboxylate]
- ligand efficiency (LE) [1]: 0.30
- lipophilic ligand efficiency (LLE) [1]: 2.5
- pIC50 ([1]; ATP concentration of 3 μM, read-out: HSET IC50): 5.57
- pIC50 ([1]; ATP concentration of 150 μM, read-out: HSET IC50 at higher ATP concentration): 5.15
- LE [1, 6]: 0.30
- LLE [1, 7]: 2.5
- pIC50 [1, 8]: 5.56
- pIC50 [1, 9]: 5.56
- % multipolarity above baseline @ 15 μM (4NCA cells) [2, 10]: 0%
- % multipolarity above baseline @ 15 μM (4NCA cells) [2, 11]: 0%
- pIC50 [3]: < 3.70
- inhibition at 200 µM ([3]; top concentration of 200 μM): 10%
- % Multipolarity above baseline @ 15 mM (4N cells) ([4]; 15 μM): 1%
- % multipolarity above baseline @ 15 μM (4N cells) [4]: 1%

Compound: CCOC(=O)c1sc(NC(=O)CCNC(=O)c2cccc(-c3noc(C)n3)c2)nc1C [Compound 13, Ethyl 4-Methyl-2-(3-(3-(5-methyl-1,2,4-oxadiazol-3-yl)benzamido)propanamido)thiazole-5-carboxylate]
- LE [1, 6]: 0.33
- LLE [1, 7]: 4.6
- pIC50 [1, 8]: 7.20
- pIC50 [1, 9]: 7.20
- % multipolarity above baseline @ 15 μM (4NCA cells) [2, 10]: 9%
- % multipolarity above baseline @ 15 μM (4NCA cells) [2, 11]: 9%
- increase in mitotic spindle multipolarity (4NCA) ([2]; 15 μM, centrosome-amplified (4NCA) DLD1 cell line): ~10%
- pIC50 [3]: < 3.70
- % Multipolarity above baseline @ 15 mM (4N cells) ([4]; 15 μM): 1%
- effect on multipolar mitoses (4N), in words ([4]; 15 μM, non-centrosome amplified DLD1 (4N) cell line): no increases in multipolar mitoses
- % multipolarity above baseline @ 15 μM (4N cells) [4]: 1%

Compound: CCCOC(=O)c1cc(NC(=O)CCNC(=O)c2cccc(-c3noc(C)n3)c2)nn1C [Compound 28, Propyl 1-Methyl-3-(3-(3-(5-methyl-1,2,4-oxadiazol-3-yl)benzamido)propanamido)-1H-pyrazole-5-carboxylate]
- LE [1, 12]: 0.30
- LLE [1, 13]: 4.7
- pIC50 [1, 14]: 6.80

Compound: CCOC(=O)c1nc(NC(=O)CCNC(=O)c2cccc(-c3noc(C)n3)c2)cn1C [Compound 29, Ethyl 1-Methyl-4-(3-(3-(5-methyl-1,2,4-oxadiazol-3-yl)benzamido)propanamido)-1H-imidazole-2-carboxylate]
- HSET inhibitory activity (in words) ([1]; HSET ADP-Glo): no HSET inhibition
- pIC50 [1, 14]: < 3.70

Further lines, results first:

- LE [1, 12]: 0.32
- LLE [1, 13]: 4.1
- pIC50 [1, 14]: 7.21
Compound: CCOC(=O)c1sc(NC(=O)C[C@H](C)NC(=O)c2cccc(-c3noc(C)n3)c2)nc1C [Compound 30, Ethyl 4-Methyl-2-[[(3S)-3-[[3-(5-methyl-1,2,4-oxadiazol-3-yl)benzoyl]amino]butanoyl]amino]thiazole-5-carboxylate]

- LE [1, 12]: 0.29
- LLE [1, 13]: 3.4
- pIC50 [1, 14]: 6.54
Compound: CCOC(=O)c1sc(NC(=O)C[C@@H](C)NC(=O)c2cccc(-c3noc(C)n3)c2)nc1C [Compound 31, Ethyl 4-Methyl-2-[[(3R)-3-[[3-(5-methyl-1,2,4-oxadiazol-3-yl)benzoyl]amino]butanoyl]amino]thiazole-5-carboxylate]

- pIC50 [1, 15]: 7.89
- KSol data [5]: >90 µM
Compound: CCCOC(=O)c1sc(NC(=O)C[C@H](CCCN)NC(=O)c2cccc(-c3noc(C)n3)c2)nc1C [Compound 33, Propyl (S)-2-(6-Amino-3-(3-(5-methyl-1,2,4-oxadiazol-3-yl)benzamido)hexanamido)-4-methylthiazole-5-carboxylate]

- pIC50 [1, 15]: 6.59
- KSol data [5]: >90 µM
Compound: CCCOC(=O)c1sc(NC(=O)C[C@@H](CCCNC)NC(=O)c2cccc(-c3noc(C)n3)c2)nc1C [Compound 34, Propyl (R)-4-Methyl-2-(3-(3-(5-methyl-1,2,4-oxadiazol-3-yl)benzamido)-6-(methylamino)hexanamido)thiazole-5-carboxylate]

- pIC50 [1, 15]: 6.97
- KSol data [5]: 53 µM
Compound: CCCOC(=O)c1sc(NC(=O)C[C@H](CCCN(C)CCOCCOCCNC(=O)O[C@@H]2CC/C=C/CCC2)NC(=O)c2cccc(-c3noc(C)n3)c2)nc1C [Compound 39, Propyl 2-((S)-1-(((S,E)-Cyclooct-4-en-1-yl)oxy)-11-methyl-15-(3-(5-methyl-1,2,4-oxadiazol-3-yl)benzamido)-1-oxo-5,8-dioxa-2,11-diazaheptadecan-17-amido)-4-methylthiazole-5-carboxylate]

Source: paper PMC9969401, “Discovery of 2-(3-Benzamidopropanamido)thiazole-5-carboxylate Inhibitors of the Kinesin HSET (KIFC1) and the Development of Cellular Target Engagement Probes” (Journal of Medicinal Chemistry, 2023)
